Measurements as given in paper PMC6072100, “Exploring the links between peptoid antibacterial activity and toxicity” (MedChemComm, 2017).
Read-outs that look alike come from different tables or passages of the source. Square brackets hold non-standard residues; d marks the D form. Peptide text beside a SMILES is read from it. Gly(N-(CH2)6NH2) = NCCCCCCNCC(=O)O; Gly(N-2-aminoethyl) = NCCNCC(=O)O; Nspe = C[C@H](NCC(=O)O)c1ccccc1; Nphe = O=C(O)CNCc1ccccc1; Nlys = NCCCCNCC(=O)O

Experiments:
Assay type in all cases: cell-based
[1] = tested on: Pseudomonas aeruginosa PA01 (ATCC 15692)
Method: (§1) Escherichia coli K-12 wild-type strain (W3110/ATCC27325, F^–, λ^–, rpoS(Am), rph-1, Inv(rrnD-rrnE)), Pseudomonas aeruginosa PA01 (ATCC 15692) Staphylococcus aureus (3R7089 strain Oxford/ATCC9144) and Staphylococcus epidermidis (laboratory strain from clinical isolate) were selected for bacteriological studies as representative Gram-negative (E. coli and P. aeruginosa) and Gram-positive (S. aureus and S. epidermidis) species. Bacterial cultures were prepared by streaking bacterial strains onto LB agar plates with an inoculation loop and incubated overnight at 37 °C. A single colony was selected and placed in 5 mL of Iso-sensitest broth (Oxoid, ThermoScientific) and incubated with shaking for 16–18 h at 37 °C to provide liquid cultures for testing.
(§2) MIC values were obtained according to the protocol described by J. M. Andrews et al.[58] and were conducted in 96-well plates (Sarstedt). Bacteria were grown from overnight cultures in Iso-sensitest broth to an A650nm of 0.07 equivalent to a 0.5 MacFarland standard (240 μM BaCl2 in 0.18 M H2SO4). This culture was diluted ten-fold with Iso-sensitest broth before use. Peptoids were initially dissolved in DMSO (5 mM) and diluted further in Iso-sensitest broth to achieve a concentration range of 4–200 μM using 2-fold serial dilutions. 50 μl of inoculum and 50 μl of peptoid solution were added to each test well (final concentration range of 2–100 μM). Experiments were performed in triplicate. A positive control for bacterial growth contained only the inoculum and Iso-sensitest broth. Other controls contained the inoculum and serial dilutions of ampicillin (from 250 μg mL^–1 to 2 μg mL^–1), serial dilutions of DMSO and the inoculum to confirm no inhibitory effect on bacterial growth, and Iso-sensitest broth alone as a sterile control. […] Quantitative data was attained from absorbance values using a Biotek Synergy H4 plate reader.
(§3) Antibacterial MIC determination
as §1, with “(W3110 / ATCC27325, F-, λ-,” for “(W3110/ATCC27325, F^–, λ^–,”, “Oxford / ATCC9144)” for “Oxford/ATCC9144)”, “°C.” for “°C. A single colony was selected and placed in 5 mL of Iso-sensitest broth (Oxoid, ThermoScientific) and incubated with shaking for 16–18 h at 37 °C to provide liquid cultures for testing.”
(§4) A single colony was selected and placed in 5 mL of Iso-sensitest broth (Oxoid, ThermoScientific) and incubated with shaking for 16-18 h at 37 °C to provide liquid […]
(§5) MIC values were obtained according to the protocol described by J. M. Andrews et al.1 and were conducted in 96-well plates (Sarstedt). Bacteria were grown from overnight cultures in Iso-sensitest broth to an A650nm of 0.07 equivalent to a 0.5 MacFarland standard (240 μM BaCl2 in 0.18 M H2SO4). This culture was diluted ten-fold with Iso-sensitest broth before use. Peptoids were initially dissolved in DMSO (5 mM) and diluted further in Iso-sensitest broth to achieve a concentration range of 4 – 200 µM using 2-fold serial dilutions. 50 μl of inoculum and 50 μl of peptoid solution were added to each test well (final concentration range of 2 – 100 µM). Experiments were performed in triplicate. A positive control for bacterial growth contained only the inoculum and Iso-sensitest broth. Other controls contained the inoculum and serial dilutions of ampicillin (from 250 µg/mL to 2 µg/mL), serial dilutions of DMSO and the inoculum to confirm no inhibitory effect on bacterial growth, and Iso-sensitest broth alone as a sterile control. […]
(§6) growth after incubation at 37 °C for 16 h with shaking. Quantitative data was attained from absorbance values using a Biotek Synergy H4 plate reader.

[2] = tested on: Escherichia coli K-12 wild-type strain (W3110/ATCC27325); conditions: lowest concentration completely inhibiting growth, 37 °C, 16 h; range 2–100 μM
Method: as §1, §2, §3
as §1, with “(W3110 / ATCC27325, F-, λ-,” for “(W3110/ATCC27325, F^–, λ^–,”, “Oxford / ATCC9144)” for “Oxford/ATCC9144)”, “°C.” for “°C. A single colony was selected and placed in 5 mL of Iso-sensitest broth (Oxoid, ThermoScientific) and incubated with shaking for 16–18 h at 37 °C to provide liquid cultures for testing.”
as §4, §5, §6

[3] = tested on: Staphylococcus epidermidis (laboratory strain from clinical isolate); conditions: 16 h
Method: as §1, §2, §3
as §1, with “(W3110 / ATCC27325, F-, λ-,” for “(W3110/ATCC27325, F^–, λ^–,”, “Oxford / ATCC9144)” for “Oxford/ATCC9144)”, “°C.” for “°C. A single colony was selected and placed in 5 mL of Iso-sensitest broth (Oxoid, ThermoScientific) and incubated with shaking for 16–18 h at 37 °C to provide liquid cultures for testing.”
as §4, §5, §6

[4] = tested on: Staphylococcus aureus (3R7089 strain Oxford/ATCC9144)
Method: as §1, §2, §3
as §1, with “(W3110 / ATCC27325, F-, λ-,” for “(W3110/ATCC27325, F^–, λ^–,”, “Oxford / ATCC9144)” for “Oxford/ATCC9144)”, “°C.” for “°C. A single colony was selected and placed in 5 mL of Iso-sensitest broth (Oxoid, ThermoScientific) and incubated with shaking for 16–18 h at 37 °C to provide liquid cultures for testing.”
as §4, §5, §6

[5] = laboratory strain from clinical isolate
[6] = lowest concentration completely inhibiting growth, 37 °C, 16 h, range 2–100 μM
[7] = lowest concentration completely inhibiting growth, 37 °C, range 2–100 μM

Structure (SMILES)	MIC P. aeruginosa ([1]; ATCC 15692, 16 h)	MIC E. coli [2]	MIC S. epidermidis [3, 5]	MIC S. aureus ([4]; ATCC9144, 16 h)	MIC P. aeruginosa [1, 6]	MIC S. epidermidis [3, 7]	MIC S. aureus [4, 6]
NCCCCCCNCC(=O)N(CC(=O)N(CC(=O)N(CCCCCCN)CC(=O)N(CC(=O)N(CC(=O)N(CCCCCCN)CC(=O)N(CC(=O)N(CC(=O)N(CCCCCCN)CC(=O)N(CC(=O)N(CC(N)=O)Cc1ccccc1)Cc1ccccc1)Cc1ccccc1)Cc1ccccc1)Cc1ccccc1)Cc1ccccc1)Cc1ccccc1)Cc1ccccc1 [Peptoid 1, (NahNpheNphe)4] (H-[Gly(N-(CH2)6NH2)][Nphe][Nphe][Gly(N-(CH2)6NH2)][Nphe][Nphe][Gly(N-(CH2)6NH2)][Nphe][Nphe][Gly(N-(CH2)6NH2)][Nphe][Nphe]-NH2)	>100 µM	13 µM	–	–	–	–	–
NCCCCCCNCC(=O)N(CC(=O)N(CC(=O)N(CCCCCCN)CC(=O)N(CC(=O)N(CC(=O)N(CCCCCCN)CC(=O)N(CC(=O)N(CC(N)=O)Cc1ccccc1)Cc1ccccc1)Cc1ccccc1)Cc1ccccc1)Cc1ccccc1)Cc1ccccc1 [Peptoid 2, (NahNpheNphe)3] (H-[Gly(N-(CH2)6NH2)][Nphe][Nphe][Gly(N-(CH2)6NH2)][Nphe][Nphe][Gly(N-(CH2)6NH2)][Nphe][Nphe]-NH2)	>100 µM	50 µM	–	–	–	–	–
NCCCCCCNCC(=O)N(CC(=O)N(CC(=O)N(CCCCCCN)CC(=O)N(CC(=O)N(CC(N)=O)Cc1ccccc1)Cc1ccccc1)Cc1ccccc1)Cc1ccccc1 [Peptoid 3, (NahNpheNphe)2] (H-[Gly(N-(CH2)6NH2)][Nphe][Nphe][Gly(N-(CH2)6NH2)][Nphe][Nphe]-NH2)	>100 µM	>100 µM	>100 µM	>100 µM	–	–	–
NCCCCNCC(=O)N(CC(=O)N(CC(=O)N(CCCCN)CC(=O)N(CC(=O)N(CC(=O)N(CCCCN)CC(=O)N(CC(=O)N(CC(=O)N(CCCCN)CC(=O)N(CC(=O)N(CC(N)=O)Cc1ccccc1)Cc1ccccc1)Cc1ccccc1)Cc1ccccc1)Cc1ccccc1)Cc1ccccc1)Cc1ccccc1)Cc1ccccc1 [Peptoid 4, (NLysNpheNphe)4] (H-[Nlys][Nphe][Nphe][Nlys][Nphe][Nphe][Nlys][Nphe][Nphe][Nlys][Nphe][Nphe]-NH2)	–	13 µM	–	–	50 µM	2 µM	3 µM
NCCCCNCC(=O)N(CC(=O)N(CC(=O)N(CCCCN)CC(=O)N(CC(=O)N(CC(=O)N(CCCCN)CC(=O)N(CC(=O)N(CC(N)=O)Cc1ccccc1)Cc1ccccc1)Cc1ccccc1)Cc1ccccc1)Cc1ccccc1)Cc1ccccc1 [Peptoid 5, (NLysNpheNphe)3]	>100 µM	50 µM	–	–	100 µM	6 µM	25 µM
NCCCCNCC(=O)N(CC(=O)N(CC(=O)N(CCCCN)CC(=O)N(CC(=O)N(CC(N)=O)Cc1ccccc1)Cc1ccccc1)Cc1ccccc1)Cc1ccccc1 [Peptoid 6, (NLysNpheNphe)2] (H-[Nlys][Nphe][Nphe][Nlys][Nphe][Nphe]-NH2)	>100 µM	>100 µM	>100 µM	>100 µM	100 µM	100 µM	100 µM
NCCNCC(=O)N(CC(=O)N(CC(=O)N(CCN)CC(=O)N(CC(=O)N(CC(=O)N(CCN)CC(=O)N(CC(=O)N(CC(=O)N(CCN)CC(=O)N(CC(=O)N(CC(N)=O)Cc1ccccc1)Cc1ccccc1)Cc1ccccc1)Cc1ccccc1)Cc1ccccc1)Cc1ccccc1)Cc1ccccc1)Cc1ccccc1 [Peptoid 7, (NaeNpheNphe)4] (H-[Gly(N-2-aminoethyl)][Nphe][Nphe][Gly(N-2-aminoethyl)][Nphe][Nphe][Gly(N-2-aminoethyl)][Nphe][Nphe][Gly(N-2-aminoethyl)][Nphe][Nphe]-NH2)	–	13 µM	–	–	50 µM	6 µM	2 µM
NCCNCC(=O)N(CC(=O)N(CC(=O)N(CCN)CC(=O)N(CC(=O)N(CC(=O)N(CCN)CC(=O)N(CC(=O)N(CC(N)=O)Cc1ccccc1)Cc1ccccc1)Cc1ccccc1)Cc1ccccc1)Cc1ccccc1)Cc1ccccc1 [Peptoid 8, (NaeNpheNphe)3] (H-[Gly(N-2-aminoethyl)][Nphe][Nphe][Gly(N-2-aminoethyl)][Nphe][Nphe][Gly(N-2-aminoethyl)][Nphe][Nphe]-NH2)	>100 µM	>100 µM	>100 µM	–	100 µM	100 µM	13 µM
NCCNCC(=O)N(CC(=O)N(CC(=O)N(CCN)CC(=O)N(CC(=O)N(CC(N)=O)Cc1ccccc1)Cc1ccccc1)Cc1ccccc1)Cc1ccccc1 [Peptoid 9, (NaeNpheNphe)2] (H-[Gly(N-2-aminoethyl)][Nphe][Nphe][Gly(N-2-aminoethyl)][Nphe][Nphe]-NH2)	>100 µM	>100 µM	>100 µM	>100 µM	100 µM	100 µM	100 µM
C[C@@H](c1ccccc1)N(CC(N)=O)C(=O)CN(C(=O)CN(CCCCCCN)C(=O)CN(C(=O)CN(C(=O)CN(CCCCCCN)C(=O)CN(C(=O)CN(C(=O)CN(CCCCCCN)C(=O)CN(C(=O)CN(C(=O)CNCCCCCCN)[C@@H](C)c1ccccc1)[C@@H](C)c1ccccc1)[C@@H](C)c1ccccc1)[C@@H](C)c1ccccc1)[C@@H](C)c1ccccc1)[C@@H](C)c1ccccc1)[C@@H](C)c1ccccc1 [Peptoid 10, (NahNspeNspe)4] (H-[Gly(N-(CH2)6NH2)][Nspe][Nspe][Gly(N-(CH2)6NH2)][Nspe][Nspe][Gly(N-(CH2)6NH2)][Nspe][Nspe][Gly(N-(CH2)6NH2)][Nspe][Nspe]-NH2; N-terminus assumed)	–	25 µM	–	–	50 µM	2 µM	2 µM
C[C@@H](c1ccccc1)N(CC(N)=O)C(=O)CN(C(=O)CN(CCCCCCN)C(=O)CN(C(=O)CN(C(=O)CN(CCCCCCN)C(=O)CN(C(=O)CN(C(=O)CNCCCCCCN)[C@@H](C)c1ccccc1)[C@@H](C)c1ccccc1)[C@@H](C)c1ccccc1)[C@@H](C)c1ccccc1)[C@@H](C)c1ccccc1 [Peptoid 11, (NahNspeNspe)3] (H-[Gly(N-(CH2)6NH2)][Nspe][Nspe][Gly(N-(CH2)6NH2)][Nspe][Nspe][Gly(N-(CH2)6NH2)][Nspe][Nspe]-NH2)	>100 µM	25 µM	–	–	–	–	–
C[C@@H](c1ccccc1)N(CC(N)=O)C(=O)CN(C(=O)CN(CCCCCCN)C(=O)CN(C(=O)CN(C(=O)CNCCCCCCN)[C@@H](C)c1ccccc1)[C@@H](C)c1ccccc1)[C@@H](C)c1ccccc1 [Peptoid 12, (NahNspeNspe)2]	>100 µM	>100 µM	–	>100 µM	–	–	–
C[C@@H](c1ccccc1)N(CC(N)=O)C(=O)CN(C(=O)CN(CCCCN)C(=O)CN(C(=O)CN(C(=O)CN(CCCCN)C(=O)CN(C(=O)CN(C(=O)CN(CCCCN)C(=O)CN(C(=O)CN(C(=O)CNCCCCN)[C@@H](C)c1ccccc1)[C@@H](C)c1ccccc1)[C@@H](C)c1ccccc1)[C@@H](C)c1ccccc1)[C@@H](C)c1ccccc1)[C@@H](C)c1ccccc1)[C@@H](C)c1ccccc1 [Peptoid 13, (NLysNspeNspe)4] (H-[Nlys][Nspe][Nspe][Nlys][Nspe][Nspe][Nlys][Nspe][Nspe][Nlys][Nspe][Nspe]-NH2)	–	25 µM	–	–	50 µM	1 µM	2 µM
